In patent publication US9371331B2, “Modulators of methyl modifying enzymes, compositions and uses thereof” (Constellation Pharmaceuticals, Inc., priority 2012, dated 2016):
Structures can show the parent of a compound that is named as a salt. Where two headings read alike, the source gives them in different places.

How the values were obtained:
[1] = test system: H3K27me3 mark in HeLa cells; test: H3K27me3 Alpha Hela Assay (AlphaLISA); type: cell-based; settings: 72 hrs; for EC50: read-out: H3K27me3_Alpha_HeLa_ (EC50)
How it was run: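 HeLa cells (1,000/well) were treated with ten 3-fold compound doses for 72 h at 37 °C. After histone extraction, H3K27me3 was detected by AlphaLISA (anti-K27me3 acceptor beads, biotinylated anti-H3, streptavidin donor), with viability measured on a duplicate plate. Data were normalized to DMSO and curve-fitted.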

[2] = test system: H3K27me3 mark in HeLa cells; test: H3K27me3 MSD Hela Assay; type: cell-based; settings: read-out: H3K27me3_MSD_HeLa_ (EC50)
How it was run: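 HeLa cells treated with compound at various concentrations for 96 h at 37 °C, then lysed with high-salt extraction. H3K27me3 measured by MSD electrochemiluminescence immunoassay on total-H3 capture plates. Dose-dependent inhibition normalised to DMSO wells and fitted to curves.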

Y641N EZH2 = Y641N EZH2 (Homo sapiens, UniProt Q15910, Y641N); test: Y641N EZH2 assay: as EZH2 assay, with reconstituted H3K27Me2 oligonucleosomes as substrate; type: biochemical
EZH2 (rPRC2) = EZH2 (rPRC2) (Homo sapiens, UniProt Q15910); test: EZH2 assay: rPRC2, biotinylated oligonucleosomes, 3H SAM methyl transfer (FlashPlate scintillation); type: biochemical; settings: biotinylated oligonucleosome substrate
[3] = Y641N EZH2 IC50, Y641N mutant EZH2, H3K27Me2 oligonucleosome substrate
[4] = read-out: EZH2 IC50, wild-type EZH2 (rPRC2)
[5] = EZH2 IC50, wild-type EZH2 (rPRC2)
[6] = Y641N mutant EZH2, H3K27Me2 oligonucleosome substrate, read-out: Y641N EZH2 IC50
[7] = wild-type EZH2 (rPRC2), read-out: EZH2 IC50

Sequence of Y641N EZH2 (Q15910 whole entry Y641N): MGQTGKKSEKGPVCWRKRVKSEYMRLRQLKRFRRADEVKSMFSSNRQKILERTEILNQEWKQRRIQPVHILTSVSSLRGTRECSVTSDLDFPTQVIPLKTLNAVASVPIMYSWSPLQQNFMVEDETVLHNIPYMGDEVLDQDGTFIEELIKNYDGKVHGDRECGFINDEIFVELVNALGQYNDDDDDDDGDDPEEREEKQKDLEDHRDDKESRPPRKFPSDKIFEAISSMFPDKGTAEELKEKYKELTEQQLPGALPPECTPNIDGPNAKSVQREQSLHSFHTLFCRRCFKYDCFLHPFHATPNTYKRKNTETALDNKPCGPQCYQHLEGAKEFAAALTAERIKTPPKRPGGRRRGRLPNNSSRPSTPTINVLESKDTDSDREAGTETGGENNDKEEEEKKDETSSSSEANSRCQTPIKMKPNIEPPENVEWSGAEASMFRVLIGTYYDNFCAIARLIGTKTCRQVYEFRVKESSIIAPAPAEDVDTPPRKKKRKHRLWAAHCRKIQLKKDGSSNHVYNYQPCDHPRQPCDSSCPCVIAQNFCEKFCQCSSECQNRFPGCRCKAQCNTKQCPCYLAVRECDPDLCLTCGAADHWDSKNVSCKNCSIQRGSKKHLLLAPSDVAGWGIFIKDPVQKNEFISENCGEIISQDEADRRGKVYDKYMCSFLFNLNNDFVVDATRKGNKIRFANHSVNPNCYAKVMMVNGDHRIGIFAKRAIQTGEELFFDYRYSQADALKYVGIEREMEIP
Sequence of Y641N EZH2 (O75530 whole entry partner): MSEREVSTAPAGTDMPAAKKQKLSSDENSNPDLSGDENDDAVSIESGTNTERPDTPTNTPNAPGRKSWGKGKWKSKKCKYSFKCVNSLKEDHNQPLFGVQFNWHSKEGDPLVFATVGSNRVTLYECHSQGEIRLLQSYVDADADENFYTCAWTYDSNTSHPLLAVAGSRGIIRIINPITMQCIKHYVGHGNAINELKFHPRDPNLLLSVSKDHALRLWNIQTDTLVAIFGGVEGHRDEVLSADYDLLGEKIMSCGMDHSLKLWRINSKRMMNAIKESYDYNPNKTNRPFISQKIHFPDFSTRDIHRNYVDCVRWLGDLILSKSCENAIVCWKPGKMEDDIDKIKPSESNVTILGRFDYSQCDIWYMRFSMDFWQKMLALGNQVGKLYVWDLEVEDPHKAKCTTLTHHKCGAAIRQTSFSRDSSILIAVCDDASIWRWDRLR
Sequence of Y641N EZH2 (Q15022 whole entry partner): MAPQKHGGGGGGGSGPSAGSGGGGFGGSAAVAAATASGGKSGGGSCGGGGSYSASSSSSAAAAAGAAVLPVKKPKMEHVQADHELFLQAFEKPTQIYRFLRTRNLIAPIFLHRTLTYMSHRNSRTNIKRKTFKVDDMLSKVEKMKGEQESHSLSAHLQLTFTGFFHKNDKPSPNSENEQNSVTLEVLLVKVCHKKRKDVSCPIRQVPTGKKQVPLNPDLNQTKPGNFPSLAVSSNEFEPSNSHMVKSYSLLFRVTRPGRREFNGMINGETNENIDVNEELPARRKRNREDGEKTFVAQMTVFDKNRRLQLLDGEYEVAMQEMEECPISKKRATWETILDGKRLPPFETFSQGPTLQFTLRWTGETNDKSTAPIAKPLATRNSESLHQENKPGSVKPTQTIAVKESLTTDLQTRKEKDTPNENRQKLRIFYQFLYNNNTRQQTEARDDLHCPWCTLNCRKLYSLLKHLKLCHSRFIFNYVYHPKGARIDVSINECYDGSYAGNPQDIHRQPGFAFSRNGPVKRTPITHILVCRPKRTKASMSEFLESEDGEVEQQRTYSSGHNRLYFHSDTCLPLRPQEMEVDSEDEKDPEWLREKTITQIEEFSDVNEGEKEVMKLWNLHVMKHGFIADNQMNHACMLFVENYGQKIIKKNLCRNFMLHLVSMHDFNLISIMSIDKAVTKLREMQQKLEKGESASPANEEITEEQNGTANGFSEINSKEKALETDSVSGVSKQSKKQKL
Sequence of EZH2 (rPRC2) (Q15910 whole entry): as the sequence (Q15910 whole entry Y641N) above, with N641Y counted along it
Sequence of EZH2 (rPRC2) (O75530 whole entry partner): as the sequence (O75530 whole entry partner) above
Sequence of EZH2 (rPRC2) (Q15022 whole entry partner): as the sequence (Q15022 whole entry partner) above

Work on COCC(C)n1c(C)c(C(=O)NCc2c(OC)cc(C)[nH]c2=O)c2ccccc21 (single isomer, unassigned) [Compound 224, N-((4-methoxy-6-methyl-2-oxo-1,2-dihydropyridin-3-yl)methyl)-1-(1-methoxypropan-2-yl)-2-methyl-1H-indole-3-carboxamide] yielded an EC50 ([1]; Homo sapiens) of less than 400 nM, an EC50 ([2]; Homo sapiens, HeLa, 96 h) of less than 400 nM and an IC50 (Y641N EZH2; [3]) of less than 100 nM. The IC50 (EZH2 (rPRC2); [4]) was less than 100 nM.

With COc1cc(C)[nH]c(=O)c1CNC(=O)c1c(C)n(C(C)C2CCOCC2)c2cc(F)ccc12 (single isomer, unassigned) [Compound 300, (R or S)-6-fluoro-N-((4-methoxy-6-methyl-2-oxo-1,2-dihydropyridin-3-yl)methyl)-2-methyl-1-(1-(tetrahydro-2H-pyran-4-yl)ethyl)-1 H-indole-3-carboxamide] the EC50 ([1]; Homo sapiens) was less than 400 nM, the EC50 ([2]; Homo sapiens, HeLa, 96 h) was less than 400 nM and the IC50 (Y641N EZH2; [3]) was less than 100 nM. It also gave an IC50 (EZH2 (rPRC2); [5]) of less than 100 nM.

In the case of COc1cc(C)[nH]c(=O)c1CNC(=O)c1c(C)n(C(C)C(C)OC)c2ccccc12 (racemic) [Compound 294, (±)-N-((4-methoxy-6-methyl-2-oxo-1,2-dihydropyridin-3-yl)methyl)-1-(3-methoxybutan-2-yl)-2-methyl-1H-indole-3-carboxamide], the EC50 ([1]; Homo sapiens) is reported as less than 400 nM, the EC50 ([2]; Homo sapiens, HeLa, 96 h) is reported as less than 400 nM and the IC50 (Y641N EZH2; [3]) is reported as less than 100 nM. The IC50 (EZH2 (rPRC2); [5]) was less than 100 nM.

COc1cc(C)[nH]c(=O)c1CNC(=O)c1c(C)n(C(C)c2ccccc2)c2ccccc12 (single isomer, unassigned) [Compound 114, (R or S)N-((4-methoxy-6-methyl-2-oxo-1,2-dihydropyridin-3-yl)methyl)-2-methyl-1-(1-phenylethyl)-1H-indole-3-carboxamide] gave an EC50 ([1]; Homo sapiens) of 400 to 2000 nM, an EC50 ([2]; Homo sapiens, HeLa, 96 h) of less than 400 nM and an IC50 (Y641N EZH2; [3]) of less than 100 nM. The IC50 (EZH2 (rPRC2); [5]) was less than 100 nM.

Work on COc1cc(C)[nH]c(=O)c1CNC(=O)c1c(C)n(C(C)C2CCOCC2)c2ccccc12 (single isomer, unassigned) [Compound 298, (R or S)-N-((4-methoxy-6-methyl-2-oxo-1,2-dihydropyridin-3-yl)methyl)-2-methy1-1-(1-(tetrahydro-2H-pyran-4-yl)ethyl)-1H-indole-3-carboxamide] yielded an EC50 ([1]; Homo sapiens) of less than 400 nM and an EC50 ([2]; Homo sapiens, HeLa, 96 h) of less than 400 nM.

In the case of COc1cc(C)[nH]c(=O)c1CNC(=O)c1c(C)n(C(C)C2CCOCC2)c2ncccc12 (single isomer, unassigned) [Compound 288, (R or S)-N-((4-Methoxy-6-methyl-2-oxo-1,2-dihydropyridin-3-yl)methyl)-2-methyl-1-(1-(tetrahydro-2H-pyran-4-yl)ethyl)-1H-pyrrolo[2,3-b]pyridine-3-carboxamide], the EC50 ([1]; Homo sapiens) is reported as less than 400 nM, the EC50 ([2]; Homo sapiens, HeLa, 96 h) is reported as 400 to 2000 nM and the IC50 (Y641N EZH2; [3]) is reported as less than 100 nM. For the same compound, the IC50 (EZH2 (rPRC2); [5]) was less than 100 nM.

For COc1cc(C)[nH]c(=O)c1CNC(=O)c1c(C)n(C(C)C2CCNCC2)c2ccccc12 (single isomer, unassigned) [Compound 326, (R or S)—N-((4-methoxy-6-methyl-2-oxo-1,2-dihydropyridin-3-yl)methyl)-2-methyl-1-(1-(piperidin-4-yl)ethyl)-1H-indole-3-carboxamide hydrochloride], the EC50 ([1]; Homo sapiens) was 400 to 2000 nM, the EC50 ([2]; Homo sapiens, HeLa, 96 h) was 400 to 2000 nM and the IC50 (Y641N EZH2; [3]) was less than 100 nM. For the same compound, the IC50 (EZH2 (rPRC2); [5]) was less than 100 nM.

For Cc1cc(C)c(CNC(=O)c2c(C)n(C(C)c3cccc(C#N)c3)c3ccccc23)c(=O)[nH]1 (centres unmarked) [Compound 187, 1-(1-(3-cyanophenyl)ethyl)-N-((4,6-dimethyl-2-oxo-1,2-dihydropyridin-3-yl)methyl)-2-methyl-1H-indole-3-carboxamide], the EC50 ([1]; Homo sapiens) was 400 to 2000 nM, the EC50 ([2]; Homo sapiens, HeLa, 96 h) was 400 to 2000 nM and the IC50 (Y641N EZH2; [3]) was 100 to 1000 nM. For the same compound, the IC50 (EZH2 (rPRC2); [5]) was less than 100 nM.

COc1cc(C)[nH]c(=O)c1CNC(=O)c1c(C)n(C(C)C(C)OC)c2ncccc12 (single isomer, unassigned) [Compound 261, N-((4-methoxy-6-methyl-2-oxo-1,2-dihydropyridin-3-yl)methyl)-1-((2R or 2S, 3R or 3S)-3-methoxybutan-2-yl)-2-methyl-1H-pyrrolo[2,3-b]pyridine-3-carboxamide] gave an EC50 ([1]; Homo sapiens) of less than 400 nM, an EC50 ([2]; Homo sapiens, HeLa, 96 h) of less than 400 nM and an IC50 (Y641N EZH2; [3]) of less than 100 nM. For the same compound, the IC50 (EZH2 (rPRC2); [5]) was less than 100 nM.

COc1cc(C)[nH]c(=O)c1CNC(=O)c1c(C)n(C(C)C2CCN(C(=O)OCC(C)C)CC2)c2ccccc12 (single isomer, unassigned) [Compound 357, (R or S)-isobutyl 4-(1-(3-(((4-methoxy-6-methyl-2-oxo-1,2-dihydropyridin-3-yl)methyl)carbamoyl)-2-methyl-1 H-indol-1-yl)ethyl)piperidine-1-carboxylate] gave an EC50 ([1]; Homo sapiens) of less than 400 nM, an IC50 (Y641N EZH2; [3]) of less than 100 nM and an IC50 (EZH2 (rPRC2); [5]) of less than 100 nM.

For Cc1cc(C)c(CNC(=O)c2c(C)n(C(C)C3CC3)c3ncccc23)c(=O)[nH]1 (single isomer, unassigned) [Compound 253, (R or S)-(±)-1-(1-cyclopropylethyl)-N-((4,6-dimethyl-2-oxo-1,2-dihydropyridin-3-yl)methyl)-2-methyl-1H-pyrrolo[2,3-b]pyridine-3-carboxamide], the EC50 ([1]; Homo sapiens) was less than 400 nM, the IC50 (Y641N EZH2; read-out: Y641N EZH2 IC50, Y641N mutant EZH2, H3K27Me2 oligonucleosome substrate) was 100 to 1000 nM and the IC50 (EZH2 (rPRC2); [4]) was less than 100 nM.

COc1cc(C)[nH]c(=O)c1CNC(=O)c1c(C)n(C(C)C2CCN(CC(C)(C)O)CC2)c2ccccc12 (single isomer, unassigned) [Compound 352, (R or S)-1-(1-(1-(2-hydroxy-2-methylpropyl)piperidin-4-yl)ethyl)-N-((4-methoxy-6-methyl-2-oxo-1,2-dihydropyridin-3-yl)methyl)-2-methyl-1H-indole-3-carboxamide] gave an EC50 ([1]; Homo sapiens) of 400 to 2000 nM, an IC50 (Y641N EZH2; [3]) of less than 100 nM and an IC50 (EZH2 (rPRC2); [5]) of less than 100 nM.

For “(±)-1-(1-(4,4-difluorocyclohexyl)ethyl)-N-((4-methoxy-6-methyl-2-oxo-1,2-dihydropyridin-3-yl)methyl)-2-methyl-1H-indole-3-carboxamide [Compound 304]”, the EC50 [1] was less than 400 nM, the EC50 ([2]; HeLa cells, MSD, 96 hours) was less than 400 nM and the IC50 (Y641N EZH2; [6]) was less than 100 nM. For the same compound, the IC50 (EZH2 (rPRC2); [7]) was less than 100 nM.

In the case of COc1cc(C)[nH]c(=O)c1CNC(=O)c1c(C)n(C(C)C2CCN(S(C)(=O)=O)CC2)c2ncncc12 (centres unmarked) [Compound 370], the “H3K27me3_Alpha_HeLa_ (EC50)” value [1] is reported as “*(3.33 μM)”, the IC50 (Y641N EZH2; [6]) is reported as less than 100 nM and the IC50 (EZH2 (rPRC2); [7]) is reported as less than 100 nM.

COc1cc(C)[nH]c(=O)c1CNC(=O)c1c(C)n(C(C)C2CCN(C(=O)OC(C)(C)C)CC2)c2ncncc12 (centres unmarked) [Compound 332, tert-butyl 4-(1-(5-(((4-methoxy-6-methyl-2-oxo-1,2-dihydropyridin-3-yl)methyl)carbamoyl)-6-methyl-7H-pyrrolo[2,3-d]pyrimidin-7-yl)ethyl)piperidine-1-carboxylate] showed an EC50 ([1]; Homo sapiens) of 400 to 2000 nM, an IC50 (Y641N EZH2; [6]) of less than 100 nM and an IC50 (EZH2 (rPRC2); [7]) of less than 100 nM.

CCC(C)n1c(C)c(C(=O)NCc2c(OC)cc(C)[nH]c2=O)c2ccc(-c3ccc(N4CCNCC4)nc3)cc21 (racemic) [Compound 349, (±)-1-(sec-butyl)-N-((4-methoxy-6-methyl-2-oxo-1,2-dihydropyridin-3-yl)methyl)-2-methyl-6-(6-(piperazin-1-yl)pyridine-3-yl)-1H-indole-3-carboxamide] was tested, and the EC50 ([1]; Homo sapiens) was 2000 to 10000 nM, the IC50 (Y641N EZH2; [3]) was less than 100 nM and the IC50 (EZH2 (rPRC2); [5]) was less than 100 nM.

With COc1cc(C)[nH]c(=O)c1CNC(=O)c1c(C)n(C(C)c2ccnc(N3CCNCC3)c2)c2ccccc12 (racemic) [Compound 353, (±)-N-((4-methoxy-6-methyl-2-oxo-1,2-dihydropyridin-3-yl)methyl)-2-methyl-1-(1-(2-(piperazin-1-yl)pyridine-4-yl)ethyl)-1H-indole-3-carboxamide] the “H3K27me3_Alpha_HeLa_ (EC50)” value [1] was “*(3.33 μM)”, the IC50 (Y641N EZH2; [3]) was less than 100 nM and the IC50 (EZH2 (rPRC2); [5]) was less than 100 nM.
